In patent publication US9815846B2 (Merck Sharp & Dohme Corp., priority 2014, dated 2017):

What follows are molecules tested against human TrkA receptor (Homo sapiens (Human), UniProt P04629) (assay: DiscoverX PathHunter TrkA functional assay (NGF-stimulated U2OS cells)). Settings: U2OS cells expressing human TrkA-PK, Shc1-EA and p75NTR; compound 1 h, then NGF at ~80% of maximal response for 3 h; luminescence.
Assay type: cell-based

human TrkA receptor, sequence (P04629 33-796): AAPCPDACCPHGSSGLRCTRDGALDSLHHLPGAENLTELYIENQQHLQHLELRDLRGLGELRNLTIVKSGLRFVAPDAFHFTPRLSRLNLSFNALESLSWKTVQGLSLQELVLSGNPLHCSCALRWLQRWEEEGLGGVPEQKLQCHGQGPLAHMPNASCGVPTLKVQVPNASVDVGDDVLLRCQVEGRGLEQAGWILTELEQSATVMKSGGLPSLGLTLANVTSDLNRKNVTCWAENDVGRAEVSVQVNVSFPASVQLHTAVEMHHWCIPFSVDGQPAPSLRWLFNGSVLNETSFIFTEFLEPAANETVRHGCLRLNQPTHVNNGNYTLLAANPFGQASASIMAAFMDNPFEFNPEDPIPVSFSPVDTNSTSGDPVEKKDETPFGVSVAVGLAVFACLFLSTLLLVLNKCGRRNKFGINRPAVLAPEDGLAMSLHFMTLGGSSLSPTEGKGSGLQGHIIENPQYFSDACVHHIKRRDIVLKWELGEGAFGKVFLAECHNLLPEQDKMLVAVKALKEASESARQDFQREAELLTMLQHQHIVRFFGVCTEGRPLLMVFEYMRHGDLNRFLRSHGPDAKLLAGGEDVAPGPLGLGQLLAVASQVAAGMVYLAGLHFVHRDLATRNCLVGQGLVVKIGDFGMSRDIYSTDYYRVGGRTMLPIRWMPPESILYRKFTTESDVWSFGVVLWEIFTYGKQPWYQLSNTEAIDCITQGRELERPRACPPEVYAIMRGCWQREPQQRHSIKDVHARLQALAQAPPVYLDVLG

IC50 [nM]	SMILES
2.8	Cn1ccc(-c2cc(C(=O)Nc3cnc(N)nc3-c3ccccc3)c(F)cc2C(F)(F)F)n1 [Example 212, N-(2-amino-4-phenylpyrimidin-5-yl)-2-fluoro-5-(1-methyl-1H-pyrazol-3-yl)-4-(trifluoromethyl)benzamide]
0.24	Cn1ccc(-c2cc(C(=O)Nc3cnc(Cn4cn[nH]c4=O)nc3-c3ccccc3)c(F)cc2C(F)(F)F)n1 [Example 227, 2-fluoro-5-(1-methyl-1H-pyrazol-3-yl)-N-(2-((5-oxo-1,5-dihydro-4H-1,2,4-triazol-4-yl)methyl)-4-phenylpyrimidin-5-yl)-4-(trifluoromethyl)benzamide]
1.3	C[C@@H](O)C(=O)N1CCc2nc(-c3ccccc3)c(NC(=O)c3ccc(C(F)(F)F)c(-c4ccn(C)n4)c3)cc2C1 [Example 163, (R)-N-(6-(2-hydroxypropanoyl)-2-phenyl-5,6,7,8-tetrahydro-1,6-naphthyridin-3-yl)-3-(1-methyl-1H-pyrazol-3-yl)-4-(trifluoromethyl)benzamide]
7.9	Cn1ccc(-c2cc(C(=O)Nc3cnc(C4(C(N)=O)CC4)nc3-c3ccccc3)c(F)cc2C(F)(F)F)n1 [Example 119, N-(2-(1-carbamoylcyclopropyl)-4-phenylpyrimidin-5-yl)-2-fluoro-5-(1-methyl-1H-pyrazol-3-yl)-4-(trifluoromethyl)benzamide]
2.9	Cn1ccc(-c2cc(C(=O)Nc3cc4c(nc3-c3ccccc3)CCNC4)c(F)cc2C(F)(F)F)n1 [Example 145, 2-fluoro-5-(1-methyl-1H-pyrazol-3-yl)-N-(2-phenyl-5,6,7,8-tetrahydro-1,6-naphthyridin-3-yl)-4-(trifluoromethyl)benzamide]
0.36	Cn1ccc(-c2cc(C(=O)Nc3ccc(C4CNC(=O)N4)nc3-c3ccccc3)c(F)cc2C(F)(F)F)n1 (stereo not shown) [Example 215, 2-Fluoro-5-(1-methyl-1H-pyrazol-3-yl)-N-(6-(2-oxoimidazolidin-4-yl)-2-phenylpyridin-3-yl)-4-(trifluoromethyl)benzamide]
16	CC(=O)NCc1cccc(-c2nc(C)ncc2NC(=O)c2cc(-c3ccn(C)n3)c(C(F)(F)F)cc2F)c1 [Example 132, N-(4-(3-(Acetamidomethyl)phenyl)-2-methylpyrimidin-5-yl)-2-fluoro-5-(1-methyl-1H-pyrazol-3-yl)-4-(trifluoromethyl)benzamide]
1.6	Cn1ccc(-c2cc(C(=O)Nc3cnc(Cn4ccnc4)nc3-c3ccccc3)ccc2C(F)(F)F)n1 [Example 224, N-(2-((1H-imidazol-1-yl)methyl)-4-phenylpyrimidin-5-yl)-3-(1-methyl-1H-pyrazol-3-yl)-4-(trifluoromethyl)benzamide]
4.4	CNS(=O)(=O)Cc1ccc(NC(=O)c2cc(-c3ccn(C)n3)c(C(F)(F)F)cc2F)c(-c2ccccc2)n1 [Example 200, 2-fluoro-5-(1-methyl-1H-pyrazol-3-yl)-N-(6-((N-methylsulfamoyl)methyl)-2-phenylpyridin-3-yl)-4-(trifluoromethyl)benzamide]
0.76	Cn1ccc(-c2cc(C(=O)Nc3cc4c(nc3-c3ccccc3)CCN(C(N)=O)C4)c(F)cc2C(F)(F)F)n1 [Example 154, 3-(2-fluoro-5-(1-methyl-1H-pyrazol-3-yl)-4-(trifluoromethyl)benzamido)-2-phenyl-7,8-dihydro-1,6-naphthyridine-6(5H)-carboxamide]
3	CC(=O)N1CC(c2ccc(NC(=O)c3cc(-c4ccn(C)n4)c(C(F)(F)F)cc3F)c(-c3ccccc3)n2)C1 [Example 208, N-(6-(1-acetylazetidin-3-yl)-2-phenylpyridin-3-yl)-2-fluoro-5-(1-methyl-1H-pyrazol-3-yl)-4-(trifluoromethyl)benzamide]
4.9	NC(=O)c1ccnc(-c2cnc(-c3ccccc3)c(NC(=O)c3cc(-c4ncccn4)c(C(F)(F)F)cc3F)c2)n1 [Example 173, 2-(5-(2-fluoro-5-(pyrimidin-2-yl)-4-(trifluoromethyl)benzamido)-6-phenylpyridin-3-yl)pyrimidine-4-carboxamide]
3.7	Cn1ccc(-c2cc(C(=O)Nc3cnc(C4CCNC4=O)nc3-c3ccccc3)c(F)cc2C(F)(F)F)n1 (single isomer, unassigned) [Example 197, (R or S)-2-Fluoro-5-(1-methyl-1H-pyrazol-3-yl)-N-(2-(2-oxopyrrolidin-3-yl)-4-phenylpyrimidin-5-yl)-4-(trifluoromethyl)benzamide]
0.54	Cn1ccc(-c2cc(C(=O)Nc3cnc(CCC(N)=O)nc3-c3ccccc3)c(F)cc2C(F)(F)F)n1 [Example 128, N-(2-(3-Amino-3-oxopropyl)-4-phenylpyrimidin-5-yl)-2-fluoro-5-(1-methyl-1H-pyrazol-3-yl)-4-(trifluoromethyl)benzamide]
1	Cn1ccc(-c2cc(C(=O)Nc3cnc(Cc4nnnn4C)nc3-c3ccccc3)c(F)cc2C(F)(F)F)n1 [Example 179, 2-Fluoro-5-(1-methyl-1H-pyrazol-3-yl)-N-(2-((1-methyl-1H-tetrazol-5-yl)methyl)-4-phenylpyrimidin-5-yl)-4-(trifluoromethyl)benzamide]
0.38	Cn1ccc(-c2cc(C(=O)Nc3cc4c(nc3-c3ccccc3)CNC4=O)c(F)cc2C(F)(F)F)n1 [Example 161, 2-fluoro-5-(1-methyl-1H-pyrazol-3-yl)-N-(5-oxo-2-phenyl-6,7-dihydro-5H-pyrrolo[3,4-b]pyridin-3-yl)-4-(trifluoromethyl)benzamide]
1.1	Cn1ccc(-c2cc(C(=O)Nc3ccc(C4CN(C(=O)CN)C4)nc3-c3ccccc3)c(F)cc2C(F)(F)F)n1 [Example 207, 2-fluoro-N-(6-(1-glycylazetidin-3-yl)-2-phenylpyridin-3-yl)-5-(1-methyl-1H-pyrazol-3-yl)-4-(trifluoromethyl)benzamide]
0.35	Cn1ccc(-c2cc(C(=O)Nc3cnc(Cn4ccc(=O)[nH]c4=O)nc3-c3ccccc3)c(F)cc2C(F)(F)F)n1 [Example 226, N-(2-((2,4-dioxo-3,4-dihydropyrimidin-1(2H)-yl)methyl)-4-phenylpyrimidin-5-yl)-2-fluoro-5-(1-methyl-1H-pyrazol-3-yl)-4-(trifluoromethyl)benzamide]

More lines, now with the values behind:

SMILES	IC50 [nM]
Cn1ccc(-c2cc(C(=O)Nc3cnc(CN4CCNC4=O)nc3-c3ccccc3)c(F)cc2C(F)(F)F)n1 [Example 77, 2-fluoro-5-(1-methyl-1H-pyrazol-3-yl)-N-(2-((2-oxoimidazolidin-1-yl)methyl)-4-phenylpyrimidin-5-yl)-4-(trifluoromethyl)benzamide]	1
Cn1ccc(-c2cc(C(=O)Nc3cnc(CC(=O)N[C@H]4CCOC4)nc3-c3ccccc3)c(F)cc2C(F)(F)F)n1 [Example 110, (S)-2-fluoro-5-(1-methyl-1H-pyrazol-3-yl)-N-(2-(2-oxo-2-((tetrahydrofuran-3-yl)amino)ethyl)-4-phenylpyrimidin-5-yl)-4-(trifluoromethyl)benzamide]	1.2
Cc1ncc(NC(=O)c2ccc(C)c(F)c2F)c(-c2ccccc2)n1 [Example 8, 2,3-difluoro-4-methyl-N-(2-methyl-4-phenylpyrimidin-5-yl)benzamide]	4300
NCc1ncc(NC(=O)c2ccc(C(F)(F)F)c(-c3ccn(C(F)F)n3)c2)c(-c2ccccc2)n1 [Example 43]	55
Cn1ccc(-c2cc(C(=O)Nc3cnc(CCO)nc3-c3ccccc3)ccc2C(F)(F)F)n1 [Example 37, N-(2-(2-hydroxyethyl)-4-phenylpyrimidin-5-yl)-3-(1-methyl-1H-pyrazol-3-yl)-4-(trifluoromethyl)benzamide]	4
CNC(=O)Cc1ncc(NC(=O)c2ccc(C(F)(F)F)c(-c3ccn(C)n3)c2)c(-c2ccccc2)n1 [Example 103, 3-(1-methyl-1H-pyrazol-3-yl)-N-(2-(2-(methylamino)-2-oxoethyl)-4-phenylpyrimidin-5-yl)-4-(trifluoromethyl)benzamide]	4.1
CN1CCOC(C(=O)NCc2ccc(NC(=O)c3cc(-c4ccn(C)n4)c(C(F)(F)F)cc3F)c(-c3ccccc3)n2)C1 (single isomer, unassigned) [Example 63, (S or R)-N-((5-(2-fluoro-5-(1-methyl-1H-pyrazol-3-yl)-4-(trifluoromethyl)benzamido)-6-phenylpyridin-2-yl)methyl)-4-methylmorpholine-2-carboxamide]	1.8
CN(Cc1ccc(NC(=O)c2cc(-c3ccn(C)n3)c(C(F)(F)F)cc2F)c(-c2ccccc2)n1)C(=O)NCCO [Example 79, 2-fluoro-N-(6-((3-(2-hydroxyethyl)-1-methylureido)methyl)-2-phenylpyridin-3-yl)-5-(1-methyl-1H-pyrazol-3-yl)-4-(trifluoromethyl)benzamide]	1.1
O=C(Nc1cnc(CO)nc1-c1ccccc1)c1ccc(C(F)(F)F)c(-c2cc[nH]n2)c1 [Example 36, N-(2-(hydroxymethyl)-4-phenylpyrimidin-5-yl)-3-(1H-pyrazol-3-yl)-4-(trifluoromethyl)benzamide]	24
Cc1ncc(NC(=O)c2cc(C3CCC(C)O3)c(C(F)(F)F)cc2F)c(-c2ccccc2)n1 (stereo not shown) [Example 33, 2-fluoro-N-(2-methyl-4-phenylpyrimidin-5-yl)-5-(5-methyltetrahydrofuran-2-yl)-4-(trifluoromethyl)benzamide]	56
Cn1ccc(-c2cc(C(=O)Nc3cc(C(N)=O)cnc3-c3ccccc3)ccc2C(F)(F)F)n1 [Example 89, 5-(3-(1-methyl-1H-pyrazol-3-yl)-4-(trifluoromethyl)benzamido)-6-phenylnicotinamide]	1.5
Cn1ccc(-c2cc(C(=O)Nc3ccc(CNC(=O)CO)nc3-c3ccccc3)ccc2C(F)(F)F)n1 [Example 53, N-(6-((2-hydroxyacetamido)methyl)-2-phenylpyridin-3-yl)-3-(1-methyl-1H-pyrazol-3-yl)-4-(trifluoromethyl)benzamide]	5.7
Cn1ccc(-c2cc(C(=O)Nc3ncccc3-c3ccccc3)ccc2C(F)(F)F)n1 [Example 22, 3-(1-methyl-1H-pyrazol-3-yl)-N-(3-phenylpyridin-2-yl)-4-(trifluoromethyl)benzamide]	64
